# Assay results: patent US10047096B2, “Substituted pyridobenzodiazepinone-derivatives and use thereof” (Bayer Pharma Aktiengesellschaft, priority 2014, dated 2018)
# Counter-ions that a name gives are not always drawn.
# Molecular target: human PDGFRβ (Homo sapiens (Human), UniProt P09619)
# Experiment: PDGFRβ kinase assay (PDGFRβ-HTRF)
# Format: biochemical
# Details: 10 μM ATP; some mean values from multiple determinations
# Protocol: The PDGFRβ-inhibitory activity of the inventive compounds was determined in the PDGFRβ-HTRF assay described hereinafter.
# The kinase used was a recombinant fusion protein composed of N-terminal GST and a C-terminal fragment of human PDGFRβ (amino acids R561-L1106), expressed in baculovirus-infected insect cells (Sf9) and purified by affinity chromatography (from ProQinase GmbH, Freiburg, Germany). The substrate used for the kinase reaction was biotinylated poly-Glu,Tyr (4:1) copolymer (from Cisbio Bioassays, Codolet, France).
# For the assay, 50 nl of a 100-fold concentrated solution of the test substance in DMSO was pipetted into a black “low-volume 384 well” microtitre plate (from Greiner Bio-One, Frickenhausen, Germany), then 2 μl of a solution of PDGFRβ in assay buffer [50 mM HEPES/NaOH pH 7.5, 10 mM MgCl2, 2.5 mM dithiothreitol, 0.01% (v/v) Triton-X100 (from Sigma)] was added and the mixture was incubated for 15 min, in order to enable preliminary binding of the substance to the enzyme before the kinase reaction. […] The resulting mixture was incubated at 22° C. for 1 h to allow formation of a complex of the biotinylated phosphorylated substrate and the detection reagents.
# Subsequently, the amount of the phosphorylated substrate was evaluated by measuring the resonance energy transfer from the PT66-Eu chelate to the streptavidin-XL665. […] The IC50 values were calculated by a 4-parameter fit.
# human PDGFRβ, sequence (P09619 561-1106): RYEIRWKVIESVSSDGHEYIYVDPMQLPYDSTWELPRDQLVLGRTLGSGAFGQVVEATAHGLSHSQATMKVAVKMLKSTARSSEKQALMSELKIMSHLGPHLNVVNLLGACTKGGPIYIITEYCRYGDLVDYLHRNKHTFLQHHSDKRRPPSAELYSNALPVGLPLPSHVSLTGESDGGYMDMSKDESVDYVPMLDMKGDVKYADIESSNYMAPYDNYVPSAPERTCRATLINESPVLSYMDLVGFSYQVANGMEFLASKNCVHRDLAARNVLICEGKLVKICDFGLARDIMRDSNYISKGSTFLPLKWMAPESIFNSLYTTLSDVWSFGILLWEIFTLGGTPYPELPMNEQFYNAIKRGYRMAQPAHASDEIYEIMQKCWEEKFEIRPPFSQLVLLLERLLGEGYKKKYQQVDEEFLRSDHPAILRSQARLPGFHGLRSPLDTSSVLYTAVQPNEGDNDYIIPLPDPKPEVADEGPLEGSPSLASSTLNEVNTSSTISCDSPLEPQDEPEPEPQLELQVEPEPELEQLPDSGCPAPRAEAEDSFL
row,SMILES,IC50 [nM]
1,CCC(CC)NCc1ccc2c(c1)NC(=O)c1c(Nc3cc(O)ccc3C)ccnc1N2 [Example 155],2.33
2,"Cc1ccc(O)cc1Nc1ccnc2c1C(=O)Nc1cc(CNCc3cccc(Cl)c3)ccc1N2 [Example 15, 8-{[(3-Chlorobenzyl)amino]methyl}-4-[(5-hydroxy-2-methylphenyl)amino]-6,11-dihydro-5H-pyrido[2,3-b][1,5]benzodiazepin-5-one]",5.77
3,"Cc1ccc(O)cc1Nc1ccnc2c1C(=O)Nc1cc(CNCCO)ccc1N2 [Example 24, 8-{[(2-Hydroxyethyl)amino]methyl}-4-[(5-hydroxy-2-methylphenyl)amino]-6,11-dihydro-5H-pyrido[2,3-b][1,5]benzodiazepin-5-one]",4.74
4,"Cc1cc(F)c(Nc2ccnc3c2C(=O)Nc2cc(CNC4CCCC4)ccc2N3)cc1O [Example 226, 8-[(Cyclopentylamino)methyl]-4-[(2-fluoro-5-hydroxy-4-methylphenyl)amino]-6,11-dihydro-5H-pyrido[2,3-b][1,5]benzodiazepin-5-one]",1.09
5,"Cc1cc(F)c(Nc2ccnc3c2C(=O)Nc2cc(CN(C)CCCO)ccc2N3)cc1O [Example 221, 4-[(2-Fluoro-5-hydroxy-4-methylphenyl)amino]-8-{[(3-hydroxypropyl)(methyl)amino]methyl}-6,11-dihydro-5H-pyrido[2,3-b][1,5]benzodiazepin-5-one]",1.74
6,"N#Cc1ccc2c(c1)NC(=O)c1c(Nc3cc(O)ccc3F)ccnc1N2 [Example 13, 4-[(2-Fluoro-5-hydroxyphenyl)amino]-5-oxo-6,11-dihydro-5H-pyrido[2,3-b][1,5]benzodiazepine-8-carbonitrile]",21.9
7,Cc1ccc(O)cc1Nc1ccnc2c1C(=O)Nc1cc(CNC(C)c3ccco3)ccc1N2 (stereo not shown) [Example 132],2.89
8,Cc1ccc(O)cc1Nc1ccnc2c1C(=O)Nc1cc(CNCc3ccc(Cl)nc3)ccc1N2 [Example 95],1.95
9,"CCOC1CCCN(Cc2ccc3c(c2)NC(=O)c2c(Nc4cc(O)c(C)cc4F)ccnc2N3)C1 (racemic) [Example 67, rac-8-[(3-Ethoxypiperidin-1-yl)methyl]-4-[(2-fluoro-5-hydroxy-4-methylphenyl)amino]-6,11-dihydro-5H-pyrido[2,3-b][1,5]benzodiazepin-5-one]",2.23
10,"Cc1cc(F)c(Nc2ccnc3c2C(=O)Nc2cc(CN4CCC(C)(C)CC4)ccc2N3)cc1O [Example 56, 8-[(4,4-Dimethylpiperidin-1-yl)methyl]-4-[(2-fluoro-5-hydroxy-4-methylphenyl)amino]-6,11-dihydro-5H-pyrido[2,3-b][1,5]benzodiazepin-5-one]",1.49
11,CCOCCC(C)NCc1ccc2c(c1)NC(=O)c1c(Nc3cc(O)ccc3C)ccnc1N2 (stereo not shown) [Example 118],4.02
12,"Cc1cc(F)c(Nc2ccnc3c2C(=O)Nc2cc(CN(C)C[C@@H](C)O)ccc2N3)cc1O [Example 201, 4-[(2-Fluoro-5-hydroxy-4-methylphenyl)amino]-8-({[(2R)-2-hydroxypropyl](methyl)amino}methyl)-6,11-dihydro-5H-pyrido[2,3-b][1,5]benzodiazepin-5-one]",1.35
13,Cc1ccc(O)cc1Nc1ccnc2c1C(=O)Nc1cc(CNCCc3ccncc3)ccc1N2 [Example 123],7.14
14,Cc1ccc(O)cc1Nc1ccnc2c1C(=O)Nc1cc(CNC3CCCC3)ccc1N2 [Example 154],2.1
15,"Cc1cc(F)c(Nc2ccnc3c2C(=O)Nc2cc(CN4CC[C@H](N(C)C)C4)ccc2N3)cc1O [Example 220, 8-{[(3S)-3-(Dimethylamino)pyrrolidin-1-yl]methyl}-4-[(2-fluoro-5-hydroxy-4-methylphenyl)amino]-6,11-dihydro-5H-pyrido[2,3-b][1,5]benzodiazepin-5-one]",2.15
16,Cc1ccc(O)cc1Nc1ccnc2c1C(=O)Nc1cc(CNC3CCS(=O)(=O)C3)ccc1N2 (stereo not shown) [Example 113],3.6
17,"CCCOC1CCCN(Cc2ccc3c(c2)NC(=O)c2c(Nc4cc(O)c(C)cc4F)ccnc2N3)C1 (racemic) [Example 68, rac-4-[(2-Fluoro-5-hydroxy-4-methylphenyl)amino]-8-[(3-propoxypiperidin-1-yl)methyl]-6,11-dihydro-5H-pyrido[2,3-b][1,5]benzodiazepin-5-one]",1.85
18,COCCCNCc1ccc2c(c1)NC(=O)c1c(Nc3cc(O)ccc3C)ccnc1N2 [Example 129],3.99
19,"COc1cc(O)cc(Nc2ccnc3c2C(=O)Nc2cc(C#N)ccc2N3)c1 [Example 9, 4-[(3-Hydroxy-5-methoxyphenyl)amino]-5-oxo-6,11-dihydro-5H-pyrido[2,3-b][1,5]benzodiazepine-8-carbonitrile]",3.83

# Now from value to molecule:
row,IC50 [nM],SMILES
1,862,"CCCc1ccc(Nc2ccnc3c2C(=O)Nc2cc(C#N)ccc2N3)cc1O [Example 2, 4-[(3-Hydroxy-4-propylphenyl)amino]-5-oxo-6,11-dihydro-5H-pyrido[2,3-b][1,5]benzodiazepine-8-carbonitrile]"
2,25,"COCCOCCOCCOCCOCCOCCOCCOCCNCc1ccc2c(c1)NC(=O)c1c(Nc3cc(O)c(C)cc3F)ccnc1N2 [Example 185, 4-[(2-Fluoro-5-hydroxy-4-methylphenyl)amino]-8-(2,5,8,11,14,17,20,23-octaoxa-26-azaheptacosan-27-yl)-6,11-dihydro-5H-pyrido[2,3-b][1,5]benzodiazepin-5-one]"
3,14.6,"CCN(CC)C(=O)c1ccc2c(c1)NC(=O)c1c(Nc3cc(O)c(C)cc3F)ccnc1N2 [Example 84, N,N-Diethyl-4-[(2-fluoro-5-hydroxy-4-methylphenyl)amino]-5-oxo-6,11-dihydro-5H-pyrido[2,3-b][1,5]benzodiazepine-8-carboxamide]"
4,12.6,"N#Cc1ccc2c(c1)NC(=O)c1c(Nc3cccc(O)c3)ccnc1N2 [Example 35, 4-[(3-Hydroxyphenyl)amino]-5-oxo-6,11-dihydro-5H-pyrido[2,3-b][1,5]benzodiazepine-8-carbonitrile]"
5,8.91,"Cc1cc(F)c(Nc2ccnc3c2C(=O)Nc2cc(C(=O)N4CCC(CCO)C4)ccc2N3)cc1O (racemic) [Example 181, rac-4-[(2-Fluoro-5-hydroxy-4-methylphenyl)amino]-8-{[3-(2-hydroxyethyl)pyrrolidin-1-yl]carbonyl}-6,11-dihydro-5H-pyrido[2,3-b][1,5]benzodiazepin-5-one]"
6,5.63,"Cc1ccc(O)cc1Nc1ccnc2c1C(=O)Nc1cc(CNCCCCO)ccc1N2 [Example 17, 8-{[(4-Hydroxybutyl)amino]methyl}-4-[(5-hydroxy-2-methylphenyl)amino]-6,11-dihydro-5H-pyrido[2,3-b][1,5]benzodiazepin-5-one]"
7,5.17,Cc1ccc(O)cc1Nc1ccnc2c1C(=O)Nc1cc(CNC3(C)CCS(=O)(=O)C3)ccc1N2 (stereo not shown) [Example 98]
8,4.98,CCC(CC)CNCc1ccc2c(c1)NC(=O)c1c(Nc3cc(O)ccc3C)ccnc1N2 [Example 93]
9,4.41,"Cc1cc(F)c(Nc2ccnc3c2C(=O)Nc2cc(CN[C@@H](CO)C(N)=O)ccc2N3)cc1O [Example 173, N^2-({4-[(2-Fluoro-5-hydroxy-4-methylphenyl)amino]-5-oxo-6,11-dihydro-5H-pyrido[2,3-b][1,5]benzodiazepin-8-yl}methyl)-L-serinamide]"
10,4.11,"CC[C@@H](C)[C@@H](CO)NCc1ccc2c(c1)NC(=O)c1c(Nc3cc(O)c(C)cc3F)ccnc1N2 [Example 172, 4-[(2-Fluoro-5-hydroxy-4-methylphenyl)amino]-8-({[(2S,3R)-1-hydroxy-3-methylpentan-2-yl]amino}methyl)-6,11-dihydro-5H-pyrido[2,3-b][1,5]benzodiazepin-5-one]"
11,3.71,"Cc1cc(F)c(Nc2ccnc3c2C(=O)Nc2cc(CN4CC5CC5C4CO)ccc2N3)cc1O (stereo not drawn) [Example 164, 4-[(2-Fluoro-5-hydroxy-4-methylphenyl)amino]-8-{[cis-2-(hydroxymethyl)-3-azabicyclo[3.1.0]hex-3-yl]methyl}-6,11-dihydro-5H-pyrido[2,3-b][1,5]benzodiazepin-5-one]"
12,1.94,"Cc1cc(F)c(Nc2ccnc3c2C(=O)Nc2cc(CN4CCC(N(C)C)CC4)ccc2N3)cc1O [Example 211, 8-{[4-(Dimethylamino)piperidin-1-yl]methyl}-4-[(2-fluoro-5-hydroxy-4-methylphenyl)amino]-6,11-dihydro-5H-pyrido[2,3-b][1,5]benzodiazepin-5-one]"
13,1.01,"Cc1cc(F)c(Nc2ccnc3c2C(=O)Nc2cc(CNC(C)C)ccc2N3)cc1O [Example 48, 4-[(2-Fluoro-5-hydroxy-4-methylphenyl)amino]-8-[(isopropylamino)methyl]-6,11-dihydro-5H-pyrido[2,3-b][1,5]benzodiazepin-5-one]"
14,0.626,"CCOC(=O)[C@H]1C[C@@H](NCc2ccc3c(c2)NC(=O)c2c(Nc4cc(O)c(C)cc4F)ccnc2N3)C1 [Example 191, cis-Ethyl 3-[({4-[(2-fluoro-5-hydroxy-4-methylphenyl)amino]-5-oxo-6,11-dihydro-5H-pyrido[2,3-b][1,5]benzodiazepin-8-yl}methyl)amino]cyclobutanecarboxylate]"

# Same assay, conditions: 10 μM ATP; some mean values from multiple determinations; hydrochloride
row,IC50 [nM],SMILES
1,3.22,"CCN(CC)Cc1ccc2c(c1)NC(=O)c1c(Nc3cc(O)c(C)cc3F)ccnc1N2 [Example 193, 8-[(Diethylamino)methyl]-4-[(2-fluoro-5-hydroxy-4-methylphenyl)amino]-6,11-dihydro-5H-pyrido[2,3-b][1,5]benzodiazepin-5-one hydrochloride]"
